Results reported in PubChem BioAssay AID1963864 (Molecular Pharmacology Branch, DTP, NCI, 2024).
pIC50: −log10 of the molar value.

Test system: KRAS PDC multicell spheroid viability
Experiment: Anticancer human tumor 521955-158-R6-J3-PDC patient-derived pancreatic carcinoma cell line growth inhibition [KRAS2]
Details: for pIC50: curve of first compound; for viability, T/C: stronger effect = lower value
In short: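 KRAS-mutant tumor cells were grown as spheroids with HUVEC endothelial cells and human MSCs as stroma. Targeted agents were tested alone and with KRAS pathway inhibitors. Doses started at or near clinical Cmax, or 10 microM, descending half-log.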

[1] = second compound 0.0316 µM, first compound 0.0316 µM
[2] = second compound 0.0316 µM, first compound 0.1 µM
[3] = second compound 0.0316 µM, first compound 0.316 µM
[4] = second compound 0.0316 µM, first compound 1 µM
[5] = second compound 0.0316 µM, first compound 3.16 µM
[6] = second compound 0.0316 µM, first compound 10 µM
[7] = second compound 0.1 µM, first compound 0.0316 µM
[8] = second compound 0.1 µM, first compound 0.1 µM
[9] = second compound 0.1 µM, first compound 0.316 µM
[10] = second compound 0.1 µM, first compound 1 µM
[11] = second compound 0.1 µM, first compound 3.16 µM
[12] = second compound 0.1 µM, first compound 10 µM
[13] = second compound 0.316 µM, first compound 0.0316 µM
[14] = second compound 0.316 µM, first compound 0.1 µM
[15] = second compound 0.316 µM, first compound 0.316 µM
[16] = second compound 0.316 µM, first compound 1 µM
[17] = second compound 0.316 µM, first compound 3.16 µM
[18] = second compound 0.316 µM, first compound 10 µM
[19] = second compound 1 µM, first compound 0.0316 µM
[20] = second compound 1 µM, first compound 0.1 µM
[21] = second compound 1 µM, first compound 0.316 µM
[22] = second compound 1 µM, first compound 1 µM
[23] = second compound 1 µM, first compound 3.16 µM
[24] = second compound 1 µM, first compound 10 µM
[25] = second compound 3.16 µM, first compound 0.0316 µM
[26] = second compound 3.16 µM, first compound 0.1 µM
[27] = second compound 3.16 µM, first compound 0.316 µM
[28] = second compound 3.16 µM, first compound 1 µM
[29] = second compound 3.16 µM, first compound 3.16 µM
[30] = second compound 3.16 µM, first compound 10 µM
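Also: drug exposure lasted seven days.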
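For viability, T/C in this document: 100% = DMSO vehicle wells and lower means fewer viable cells.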

With `COc1cc(Nc2ncc3c(n2)-c2ccc(Cl)cc2C(c2c(F)cccc2OC)=NC3)ccc1C(=O)O` + C=CC(=O)N1CCN(c2nc(OCC3CCCN3C)nc3c2CCN(c2cccc4cccc(C)c24)C3)CC1CC#N as the molecule, how does the pIC50 (second compound 0.0316 µM) read?
Its pIC50 is less than 5.00.

What about the pIC50 (second compound 0.1 µM) of the same molecule?
The pIC50 was less than 5.00.

And the pIC50 (second compound 0.316 µM)?
The pIC50 was less than 5.00.

What about the pIC50 (second compound 1 µM) of the same molecule?
Its pIC50 is less than 5.00.

What about the pIC50 (second compound 3.16 µM) of the same molecule?
The pIC50 was greater than 7.50.

What about the viability, T/C [1] of the same molecule?
Its viability, T/C is 95.3%.

And the viability, T/C [2]?
The viability, T/C was 86.4%.

What about the viability, T/C [3] of the same molecule?
Its viability, T/C is 87.3%.

And the viability, T/C [4]?
Its viability, T/C is 88.1%.

And the viability, T/C [5]?
The viability, T/C was 89.5%.

And the viability, T/C [6]?
Its viability, T/C is 83.6%.

And the viability, T/C [7]?
Its viability, T/C is 92.2%.

And the viability, T/C [8]?
The viability, T/C was 91%.

What about the viability, T/C [9] of the same molecule?
Its viability, T/C is 87.7%.

And the viability, T/C [10]?
Its viability, T/C is 91%.

And the viability, T/C [11]?
The viability, T/C was 92%.

And the viability, T/C [12]?
Its viability, T/C is 97.9%.

And the viability, T/C [13]?
The viability, T/C was 86.2%.

And the viability, T/C [14]?
Its viability, T/C is 87.4%.

What about the viability, T/C [15] of the same molecule?
The viability, T/C was 79.8%.

And the viability, T/C [16]?
Its viability, T/C is 78.1%.

And the viability, T/C [17]?
Its viability, T/C is 85.9%.

And the viability, T/C [18]?
Its viability, T/C is 86.4%.

What about the viability, T/C [19] of the same molecule?
The viability, T/C was 78%.

What about the viability, T/C [20] of the same molecule?
Its viability, T/C is 66%.

What about the viability, T/C [21] of the same molecule?
The viability, T/C was 82.2%.

What about the viability, T/C [22] of the same molecule?
The viability, T/C was 76.1%.

And the viability, T/C [23]?
The viability, T/C was 82.7%.

And the viability, T/C [24]?
The viability, T/C was 77.3%.

And the viability, T/C [25]?
Its viability, T/C is 25.6%.

And the viability, T/C [26]?
Its viability, T/C is 25.7%.

What about the viability, T/C [27] of the same molecule?
Its viability, T/C is 18.3%.

And the viability, T/C [28]?
The viability, T/C was 53.4%.

What about the viability, T/C [29] of the same molecule?
Its viability, T/C is 59.4%.

And the viability, T/C [30]?
The viability, T/C was 29.2%.

How did the pIC50 (second compound 0.0316 µM) turn out when `COc1cc2nccc(Oc3ccc(NC(=O)C4(C(=O)Nc5ccc(F)cc5)CC4)cc3)c2cc1OC` + C=CC(=O)N1CCN(c2nc(OCC3CCCN3C)nc3c2CCN(c2cccc4cccc(C)c24)C3)CC1CC#N was run?
The pIC50 was less than 5.00.

What about the pIC50 (second compound 0.1 µM) of the same molecule?
Its pIC50 is less than 5.00.

And the pIC50 (second compound 0.316 µM)?
Its pIC50 is less than 5.00.

And the pIC50 (second compound 1 µM)?
The pIC50 was less than 5.00.

And the pIC50 (second compound 3.16 µM)?
Its pIC50 is greater than 7.50.

And the viability, T/C [1]?
The viability, T/C was 103%.

What about the viability, T/C [2] of the same molecule?
The viability, T/C was 111%.

And the viability, T/C [3]?
The viability, T/C was 98.6%.

What about the viability, T/C [4] of the same molecule?
The viability, T/C was 107%.

What about the viability, T/C [5] of the same molecule?
Its viability, T/C is 126%.

What about the viability, T/C [6] of the same molecule?
The viability, T/C was 128%.

And the viability, T/C [7]?
The viability, T/C was 106%.

What about the viability, T/C [8] of the same molecule?
Its viability, T/C is 102%.

What about the viability, T/C [9] of the same molecule?
The viability, T/C was 117%.

And the viability, T/C [10]?
Its viability, T/C is 116%.

And the viability, T/C [11]?
Its viability, T/C is 143%.

And the viability, T/C [12]?
Its viability, T/C is 133%.

What about the viability, T/C [13] of the same molecule?
Its viability, T/C is 103%.

And the viability, T/C [14]?
Its viability, T/C is 99.3%.

What about the viability, T/C [15] of the same molecule?
The viability, T/C was 96.5%.

And the viability, T/C [16]?
Its viability, T/C is 109%.

And the viability, T/C [17]?
Its viability, T/C is 138%.

And the viability, T/C [18]?
The viability, T/C was 140%.

What about the viability, T/C [19] of the same molecule?
The viability, T/C was 81.1%.

What about the viability, T/C [20] of the same molecule?
The viability, T/C was 80.8%.

What about the viability, T/C [21] of the same molecule?
The viability, T/C was 83.3%.

What about the viability, T/C [22] of the same molecule?
Its viability, T/C is 82.3%.

And the viability, T/C [23]?
Its viability, T/C is 123%.

What about the viability, T/C [24] of the same molecule?
Its viability, T/C is 111%.

What about the viability, T/C [25] of the same molecule?
The viability, T/C was 43.3%.

What about the viability, T/C [26] of the same molecule?
The viability, T/C was 44%.

And the viability, T/C [27]?
Its viability, T/C is 33.7%.

What about the viability, T/C [28] of the same molecule?
Its viability, T/C is 15.4%.

What about the viability, T/C [29] of the same molecule?
The viability, T/C was 1.6%.

What about the viability, T/C [30] of the same molecule?
The viability, T/C was 17.8%.
